Assay results taken from patent publication US20050197407A1, “Method and preparation for reducing irritation and/or inflammatory reaction in human skin” (PCR Technology Holdings, LC, priority 2004, published 2005).

System: facial skin of humans
Assay: Retinoid irritation test: idebenone pre-treatment then prescription retinoid, clinician grading and TEWL
Assay type: in vivo
Procedure: In a test, idebenone was applied to the facial skin of humans. Two different test sites were setup whereby, one site was applied with idebenone twice a day for 2 weeks followed by a 2 week application period of a prescription retinoid (once a day, as prescribed). The remaining site was applied for 2 weeks just the prescription retinoid (once a day, as prescribed). Each test site was evaluated by a trained clinician for irritation and roughness using a 0 (none) to 4 (severe) scale pre and post retinoid treatment. Additionally, transepidermal water loss measurements (TEWL) were also made at the same time as visual evaluations.
FIG. 1 graphically depicts the results of the test.

[1] = facial skin, pre vs post 2 week retinoid treatment once a day, idebenone site pre-treated twice a day for 2 weeks

Question: Which “increase in irritation (0 (none) to 4 (severe) scale, trained clinician)” value [1] does the source give for `COC1=C(OC)C(=O)C(CCCCCCCCCCO)=C(C)C1=O` [Idebenone, 6-(10-hydroxydecyl)-2,3-dimethoxy-5-methyl-1,4-benzoquinone] here?
Answer: Its value is “moderate to minimal increase”.

Question: And the “increase in roughness (0 (none) to 4 (severe) scale, trained clinician)” value [1]?
Answer: Its value is “moderate to minimal increase”.

Question: And the “increase in transepidermal water loss measurements (TEWL)” value [1]?
Answer: Its value is “moderate to minimal increase”.

Question: And the “irritation potential produced by the prescription retinoid” value (idebenone used as a pre-treatment for 2 weeks)?
Answer: Its value is “significantly reduced”.
